Data: the NIST ThermoML archive (doi:10.1016/j.jct.2018.03.019)
± gives the expanded uncertainty stated by the source. Each block holds one compound with its values, some of them ahead of it.

Details: Liquid, Ebulliometric method (Recirculating still)

- vapor or sublimation pressure (339.13 K): 101.3 ± 0.71 kPa
SMILES: CC(C)N(C)C [N,N-dimethylisopropylamine]

SMILES: O=Cc1ccco1 [2-furaldehyde]
- vapor or sublimation pressure (435.15 K): 101.3 ± 0.71 kPa

SMILES: CC(C)=O [acetone]
- vapor or sublimation pressure (329.56 K): 101.3 ± 0.66 kPa

- vapor or sublimation pressure (439.05 K): 101.3 ± 0.71 kPa
SMILES: CC(=O)N(C)C [N,N-dimethylethanamide]
